Key:
[1] = biological target: LRRK2 WT (Homo sapiens, UniProt Q5S007); test: Odyssey CLx 96-well ICW assay, LRRK2-Ser935 phosphorylation in transfected HEK293 cells; type: cell-based; details: transiently transfected HEK293 cells, 1 h, mean, n = 3
From the text: (§1) Plasmids encoding various LRRK2 and Rab GTPase protein variants were transiently expressed in HEK293 cells using Lipofectamine®2000 according to the manufacturer’s instructions (Thermo Fisher Scientific, US).
(§2) HEK293 cells grown in clear-bottom 96-well plates were transfected with either wild type LRRK2, kinase overactive variant G2019S, inhibition-resistant mutant A2016T or mock, respectively. […] Subsequently, the plates were processed as previously described.

[2] = biological target: T1, LRRK2 G2019S (Homo sapiens, UniProt Q5S007, G2019S); test: as above; type: cell-based; details: transiently transfected HEK293 cells, overactive variant G2019S, 1 h, mean, n = 3
T1 construct: expressed in transfected cells; host or cells: HEK293
From the text: as §1, §2

[3] = biological target: T2, LRRK2 A2016T (Homo sapiens, UniProt Q5S007, A2016T); test: as above; type: cell-based; details: transiently transfected HEK293 cells, inhibition resistant mutant A2016T, 1 h, mean, n = 3
T2 construct: expressed in transfected cells; host or cells: HEK293
From the text: as §1, §2

[4] = system: Rab12-pSer106; test: Western Blot, cultured immune stimulated human PBMCs; type: cell-based; details: 100 nM, 1hr or 24 hrs
Experimental: Cell pellets were resuspended and solubilized in 100 µL lysis buffer (50 mM Tris hydrochloride, 1 mM magnesium chloride, 1% Triton, 0.1% sodium dodecyl sulfate (SDS), pH 8.0) on ice for 20 minutes and then centrifuged at 20,000 g for 30 minutes at 4 °C. […] The proteins were visually detected by infrared imaging using Odyssey CLx (LI-COR, Nebraska, US). Membranes were scanned and band intensities were quantified using the Image Studio version 3.1.4 (LI-COR, Nebraska).

[5] = system: Rab12-pSer106; test: Western Blot, HEK293 cells co-expressing HA-Rab12 and LRRK2 variants; type: cell-based, human; details: 100 nM; HEK293 co-overexpressing HA-Rab12 and LRRK2 WT, G2019S or R1441C
Experimental: as §1
HEK293 cells were plated at a density of 1 × 10^6 cells/well in 6-well plates pre-coated for 1 hr at 37 °C with poly-L-lysin. Subsequent to the transient transfection HEK293 cells were harvested using 1 mL cold Phosphate Buffered Saline (PBS) buffer (Invitrogen, California, US) and subsequently centrifuged at 800 g for 2 minutes. Cell pellets were resuspended and solubilized in 100 µL lysis buffer (50 mM Tris hydrochloride, 1 mM magnesium chloride, 1% Triton, 0.1% sodium dodecyl sulfate (SDS), pH 8.0) on ice for 20 minutes and then centrifuged at 20,000 g for 30 minutes at 4 °C. The solubilized crude cell lysate was size mobility separated by SDS-polyacrylamide gel electrophoresis (SDS-PAGE). LRRK2 was separated on a 3–8% Tris-Acetate gel (NuPAGE® Tris-Acetate Mini Gels, Life Technologies, Paisley, UK) and Rab10 and Rab12 were separated using a NuPAGE® Novex 4–12% Bis-Tris Gel (Invitrogen, California, US). An amount of 10 µg total protein was loaded in each well. Proteins were transferred to immobilon-FL PVDF membranes (Millipore, Billerica, US).

[6] = biological target: T3, LRRK2-pSer935 (Homo sapiens, UniProt Q5S007); test: Western Blot, cultured immune stimulated human PBMCs; type: cell-based; details: 100 nM, 1hr and 24hrs, n = 10 donors
T3 construct: human primary cells expressing endogenous levels of LRRK2; endogenous in cells; host or cells: human PBMCs from healthy donors
Experimental: PBMC were isolated from fresh blood collected within a maximal time of 4 hours after blood collection. Leucosep tubes (Greiner 227290) was added 15 ml Ficoll (GE Healthcare 17-440-03) and spun 30 s at 1000 × g. Blood was diluted 1:1 using D-PBS 1X (Gibco 14190), transfered to the Leucosep and centrifuged at 800 g for 15 min without brake. The upper layer corresponding to the diluted plasma was removed and the PBMC layer collected using a pipette or by pouring into a clean BD Falcon 50 ml tube. Cells were re-suspended and washed four times with 10 ml of D-PBS 1X (Gibco 14190) followed by centrifugation at 250 g for 10 min with brake at room temperature. The supernatant was discarded and the cells re-suspended in Complete medium equilibrated to 37 °C. The number of dead and living cells were counted on a Nucleocounter and used to calculate percent viability. […]
HEK293 cells were plated at a density of 1 × 10^6 cells/well in 6-well plates pre-coated for 1 hr at 37 °C with poly-L-lysin. […] The proteins were visually detected by infrared imaging using Odyssey CLx (LI-COR, Nebraska, US). Membranes were scanned and band intensities were quantified using the Image Studio version 3.1.4 (LI-COR, Nebraska).

T3 sequence (Q5S007 whole entry): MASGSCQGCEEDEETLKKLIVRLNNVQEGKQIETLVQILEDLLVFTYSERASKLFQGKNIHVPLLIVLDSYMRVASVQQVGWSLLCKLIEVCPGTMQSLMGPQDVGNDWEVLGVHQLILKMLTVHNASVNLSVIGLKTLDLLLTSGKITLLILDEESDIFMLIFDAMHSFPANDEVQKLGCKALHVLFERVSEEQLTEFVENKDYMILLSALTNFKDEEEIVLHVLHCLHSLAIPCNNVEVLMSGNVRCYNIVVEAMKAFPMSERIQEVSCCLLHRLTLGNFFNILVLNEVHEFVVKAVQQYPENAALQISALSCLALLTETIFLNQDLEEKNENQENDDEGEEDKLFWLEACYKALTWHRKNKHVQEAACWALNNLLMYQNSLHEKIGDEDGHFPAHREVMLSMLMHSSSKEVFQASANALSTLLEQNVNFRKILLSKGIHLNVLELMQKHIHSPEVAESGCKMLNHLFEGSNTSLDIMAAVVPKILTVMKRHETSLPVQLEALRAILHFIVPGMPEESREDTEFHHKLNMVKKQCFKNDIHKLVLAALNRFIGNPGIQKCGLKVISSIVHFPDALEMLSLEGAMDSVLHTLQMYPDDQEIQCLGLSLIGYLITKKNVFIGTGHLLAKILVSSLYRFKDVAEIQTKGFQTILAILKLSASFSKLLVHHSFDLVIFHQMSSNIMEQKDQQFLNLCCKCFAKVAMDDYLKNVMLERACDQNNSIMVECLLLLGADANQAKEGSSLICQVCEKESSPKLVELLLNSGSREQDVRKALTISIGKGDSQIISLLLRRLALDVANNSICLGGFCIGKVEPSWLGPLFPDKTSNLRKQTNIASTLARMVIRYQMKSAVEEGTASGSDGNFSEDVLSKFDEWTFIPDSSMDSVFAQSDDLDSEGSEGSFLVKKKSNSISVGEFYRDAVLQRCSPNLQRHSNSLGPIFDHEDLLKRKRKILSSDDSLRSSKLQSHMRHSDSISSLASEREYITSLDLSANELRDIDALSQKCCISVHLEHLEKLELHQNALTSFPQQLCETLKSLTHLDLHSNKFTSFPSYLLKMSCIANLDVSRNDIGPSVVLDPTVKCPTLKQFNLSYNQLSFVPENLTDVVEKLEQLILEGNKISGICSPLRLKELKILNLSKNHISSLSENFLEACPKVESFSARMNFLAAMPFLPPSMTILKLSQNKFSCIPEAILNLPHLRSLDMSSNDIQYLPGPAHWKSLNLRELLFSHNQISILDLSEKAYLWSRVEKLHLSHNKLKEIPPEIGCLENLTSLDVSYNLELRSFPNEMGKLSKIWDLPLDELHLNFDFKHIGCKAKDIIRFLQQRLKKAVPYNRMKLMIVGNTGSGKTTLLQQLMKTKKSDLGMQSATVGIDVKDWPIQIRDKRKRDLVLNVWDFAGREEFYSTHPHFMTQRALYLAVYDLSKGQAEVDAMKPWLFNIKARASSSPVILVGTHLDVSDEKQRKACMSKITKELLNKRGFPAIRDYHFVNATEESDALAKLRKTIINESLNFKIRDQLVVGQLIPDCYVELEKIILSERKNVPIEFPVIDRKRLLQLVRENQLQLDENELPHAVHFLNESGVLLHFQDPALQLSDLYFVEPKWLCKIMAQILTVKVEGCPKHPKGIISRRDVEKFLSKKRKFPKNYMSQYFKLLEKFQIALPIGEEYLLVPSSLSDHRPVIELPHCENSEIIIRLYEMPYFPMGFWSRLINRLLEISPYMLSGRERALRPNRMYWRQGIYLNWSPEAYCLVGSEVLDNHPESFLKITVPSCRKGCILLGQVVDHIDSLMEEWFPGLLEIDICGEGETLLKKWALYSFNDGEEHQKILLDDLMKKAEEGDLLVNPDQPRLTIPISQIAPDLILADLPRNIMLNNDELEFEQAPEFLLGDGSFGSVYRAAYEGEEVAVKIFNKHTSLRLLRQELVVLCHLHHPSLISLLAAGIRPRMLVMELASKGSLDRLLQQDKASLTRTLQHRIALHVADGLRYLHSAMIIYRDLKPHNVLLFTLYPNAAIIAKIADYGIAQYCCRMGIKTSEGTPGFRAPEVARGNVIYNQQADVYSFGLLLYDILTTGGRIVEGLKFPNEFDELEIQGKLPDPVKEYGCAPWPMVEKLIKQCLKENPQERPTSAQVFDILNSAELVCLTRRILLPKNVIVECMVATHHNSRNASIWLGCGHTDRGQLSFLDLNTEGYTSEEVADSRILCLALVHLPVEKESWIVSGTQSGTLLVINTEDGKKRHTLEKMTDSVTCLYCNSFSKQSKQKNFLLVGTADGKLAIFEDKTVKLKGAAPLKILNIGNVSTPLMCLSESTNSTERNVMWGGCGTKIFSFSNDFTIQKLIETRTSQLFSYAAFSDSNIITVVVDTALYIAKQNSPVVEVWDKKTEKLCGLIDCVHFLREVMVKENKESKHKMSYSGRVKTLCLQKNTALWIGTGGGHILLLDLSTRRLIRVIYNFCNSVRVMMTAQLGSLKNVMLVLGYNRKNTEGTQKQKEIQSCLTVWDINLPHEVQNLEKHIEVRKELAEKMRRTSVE
T1 sequence (Q5S007 whole entry G2019S): as the sequence (Q5S007 whole entry) above, with G2019S counted along it
T2 sequence (Q5S007 whole entry A2016T): as the sequence (Q5S007 whole entry) above, with A2016T counted along it
LRRK2 WT, sequence (Q5S007 whole entry): as the sequence (Q5S007 whole entry) above

| Compound | IC50 [1] | IC50 [2] | IC50 [3] | inhibition of Rab12 phosphorylation (Rab12-pSer106) [4] | phosphorylation of Rab12 (pSer106) [5] | LRRK2 kinase inhibition (LRRK2-pSer935/total LRRK2) [6] |
| --- | --- | --- | --- | --- | --- | --- |
| Cc1cccc(-c2cc(Nc3ccn(C)n3)nc3[nH]cc(C#N)c23)c1 [Lu AF58786] | 12 nM | 19 nM | 93 nM | not able to significant inhibit | statistically significant reduction | confirmed |
| Cn1cc(-c2c[nH]c3ncnc(N4CCOCC4)c23)cc1C#N [PFE-360] | – | – | – | not able to significant inhibit | – | confirmed |

— article PMC5578959, “Selective LRRK2 kinase inhibition reduces phosphorylation of endogenous Rab10 and Rab12 in human peripheral mononuclear blood cells” (Scientific Reports, 2017)
